Our source for the IC50 values is patent US20230081390A1, “INHIBITORS OF RAF KINASES” (Kinnate Biopharma Inc., priority 2019, published 2023).

This experiment deals with human RAF1 (Homo sapiens, UniProt P04049). In words: Protein kinase assay (33P-ATP filter binding), human RAF1, 10-dose IC50. To be noted: MEK1 (K97R) substrate 3 micromolar, ATP 10 micromolar, read-out: RAF-1 IC50. Type of experiment: biochemical. The procedure: In brief, for each reaction, kinase and substrate were mixed in a buffer containing 20 mM HEPES (pH 7.5), 10 mM MgCl2, 1 mM EGTA, 0.02% Brij35, 0.02 mg/mL BSA, 0.1 mM Na3VO4, 2 mM DTT, and […]. All compounds were solubilized in DMSO. Compounds were then added to each reaction mixture via acoustic dispense using an ECHO 550 nanoliter dispenser. For human RAF1 testing, human MEK1 (K97R) was used as a substrate at a concentration of 3 micromolar, with a final ATP concentration of 10 micromolar. […] Reactions were carried out at room temperature for 2 hr and spotted onto P81 ion exchange cellulose chromatography paper (Reaction Biology). […] The percent remaining kinase activity relative to a vehicle-containing (DMSO) kinase reaction was calculated for each kinase/inhibitor pair. IC50 values were calculated using Prism 5 (GraphPad).
Sequence of human RAF1 (P04049 whole entry): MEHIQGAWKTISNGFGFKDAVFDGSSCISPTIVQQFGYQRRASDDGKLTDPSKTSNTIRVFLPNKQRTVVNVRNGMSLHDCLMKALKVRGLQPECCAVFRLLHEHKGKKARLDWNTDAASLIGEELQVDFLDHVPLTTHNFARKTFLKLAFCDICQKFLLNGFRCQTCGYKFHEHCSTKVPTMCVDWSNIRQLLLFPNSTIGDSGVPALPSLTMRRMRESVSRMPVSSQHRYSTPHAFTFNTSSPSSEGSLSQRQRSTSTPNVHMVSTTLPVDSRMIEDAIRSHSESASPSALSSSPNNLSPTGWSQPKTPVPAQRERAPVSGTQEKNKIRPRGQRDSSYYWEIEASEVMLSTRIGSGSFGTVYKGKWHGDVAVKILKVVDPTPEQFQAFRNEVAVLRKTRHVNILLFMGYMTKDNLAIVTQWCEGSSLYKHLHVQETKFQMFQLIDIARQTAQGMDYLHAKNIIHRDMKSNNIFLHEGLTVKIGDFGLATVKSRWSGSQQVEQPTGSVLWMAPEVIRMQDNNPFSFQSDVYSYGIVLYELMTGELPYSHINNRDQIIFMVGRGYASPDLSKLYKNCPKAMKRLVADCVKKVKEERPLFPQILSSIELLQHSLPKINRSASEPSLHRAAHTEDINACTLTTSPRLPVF
For `Cc1ccc(NC(=O)N2CC[C@H](OC(F)(F)F)C2)cc1-c1cc(O[C@@H](C)CO)nc(N2CCOCC2)c1` [Example 151, (3S)-N-[3-(2-[[(2S)-1-hydroxypropan-2-yl]oxy]-6-(morpholin-4-yl)pyridin-4-yl)-4-methylphenyl]-3-(trifluoromethoxy)pyrrolidine-1-carboxamide], the IC50 was under 10 nM.
Next, `C/C(=C1\CCN(C(=O)Nc2cc(-c3cc(OCCO)nc(N4CCOCC4)c3)c(C)cc2F)C1)C(F)(F)F` [Example 94, (3Z)-N-[2-fluoro-5-[2-(2-hydroxyethoxy)-6-(morpholin-4-yl)pyridin-4-yl]-4-methylphenyl]-3-(1,1,1-trifluoropropan-2-ylidene)pyrrolidine-1-carboxamide]: under 10 nM; `Cc1ccc(NC(=O)N2CCC(S(=O)(=O)C(F)(F)F)C2)cc1-c1cc(OCCO)nc(N2CCOCC2)c1` (centres unmarked) [Example 134, N-[3-[2-(2-hydroxyethoxy)-6-(morpholin-4-yl)pyridin-4-yl]-4-methylphenyl]-3-trifluoromethanesulfonylpyrrolidine-1-carboxamide]: under 10 nM.
The result for `COC1(C(F)(F)F)CCCN(C(=O)Nc2cc(-c3cc(OCCO)nc(N4CCOCC4)c3)c(C)cc2F)C1` (centres unmarked) [Example 42, N-[2-fluoro-5-[2-(2-hydroxyethoxy)-6-(morpholin-4-yl)pyridin-4-yl]-4-methylphenyl]-3-methoxy-3-(trifluoromethyl)piperidine-1-carboxamide] reads under 10 nM; that for `Cc1ccc(NC(=O)N2CCC(CC(F)(F)F)C2)cc1-c1cc(OC2CCN(C)CC2)nc(N2CCOCC2)c1` (centres unmarked) [Example 190, N-(4-methyl-3-(2-((1-methylpiperidin-4-yl)oxy)-6-morpholinopyridin-4-yl)phenyl)-3-(2,2,2-trifluoroethyl)pyrrolidine-1-carboxamide], under 10 nM.
For `Cc1cc(F)c(NC(=O)N2CCO[C@@H](C(F)(F)F)C2)cc1-c1cnc(OC2CCOCC2)c(N2CCOCC2)c1` [Example 87, (2R)-N-[2-fluoro-4-methyl-5-[5-(morpholin-4-yl)-6-(oxan-4-yloxy)pyridin-3-yl]phenyl]-2-(trifluoromethyl)morpholine-4-carboxamide], the IC50 is under 10 nM.
The result for `Cc1ccc(NC(=O)N2CCC(CC(F)(F)F)C2)cc1-c1cc(O[C@H]2CCNC2)nc(N2CCOCC2)c1` (stereo partly drawn) [Example 201, N-(4-methyl-3-(2-morpholino-6-((S)-pyrrolidin-3-yloxy)pyridin-4-yl)phenyl)-3-(2,2,2,- trifluoroethyl)pyrrolidine-1-carboxamide] reads under 10 nM.
Next, `Cc1cc(F)c(NC(=O)N2CCC3C2C3C(F)(F)F)cc1-c1cc(OCCO)nc(N2CCOCC2)c1` (single isomer, unassigned) [Example 71, N-[2-fluoro-5-[2-(2-hydroxyethoxy)-6-(morpholin-4-yl)pyridin-4-yl]-4-methylphenyl]-6-(trifluoromethyl)-2-azabicyclo[3.1.0]hexane-2-carboxamide]: 100 to 1000 nM; `Cc1cc(F)c(NC(=O)N2CCC3(CC3)C2)cc1-c1cc(OCCO)nc(N2CCOCC2)c1` [Example 18, N-[2-fluoro-5-[2-(2-hydroxyethoxy)-6-(morpholin-4-yl)pyridin-4-yl]-4-methylphenyl]-5-azaspiro[2.4]heptane-5-carboxamide]: under 10 nM.
In the case of `Cc1cc(F)c(NC(=O)N2CC[C@H](C(F)(F)F)C2)cc1-c1cnc(OCCO)c(N2CCOCC2)c1` [Example 13, (3S)-N-[2-fluoro-5-[6-(2-hydroxyethoxy)-5-(morpholin-4-yl)pyridin-3-yl]-4-methylphenyl]-3-(trifluoromethyl)pyrrolidine-1-carboxamide], the IC50 was under 10 nM.
For the molecule `Cc1ccc(NC(=O)N2CC/C(=C\C(F)(F)F)C2)cc1-c1cc(OCCO)nc(N2CCOCC2)c1` [Example 136, (3E)-N-[3-[2-(2-hydroxyethoxy)-6-(morpholin-4-yl)pyridin-4-yl]-4-methylphenyl]-3-(2,2,2-trifluoroethylidene)pyrrolidine-1-carboxamide], the IC50 was under 10 nM.

Usually IC50 stands for the concentration that inhibits the measured activity by half.
